{"source": "patent US20050026836A1", "about": "“Composition for the treatment of damaged tissue” (priority 1999, published 2005)", "type_in_all_cases": "biochemical", "key": {"[1]": {"biological_target": "catalytic domain of human MMP-2 (Homo sapiens, UniProt P08253)", "sequence (P08253 with tags, fused parts or gaps DEL222-396 limits assumed)": "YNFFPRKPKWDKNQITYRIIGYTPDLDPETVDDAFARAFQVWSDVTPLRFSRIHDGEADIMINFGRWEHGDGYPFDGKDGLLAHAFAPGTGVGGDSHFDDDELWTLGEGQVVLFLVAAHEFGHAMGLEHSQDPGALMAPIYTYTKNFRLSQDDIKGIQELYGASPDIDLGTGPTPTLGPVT", "test": "MMP-2 fluorogenic inhibition assay", "details": "read-out: Calculated Ki(nM) MMP-2", "experimental": "(§1) All enzymes were pre-activated at 37° C. with aminophenylmercuric acetate (APMA) or trypsin before being made up to the final concentrations used in the assay.\n(§2) For MMP-1, the assay buffer used was 50 mM Tris, 200 mM NaCl, 5 mM CaCl2, 20 μM ZnCl2, 0.05% (w/v) Brij 35, pH 7.5. […] For MMP-13, the assay buffer used was 50 mM Tris, pH 7.5, 200 mM NaCl, 5 mM CaCl2, […] and 0.02% (w/v) Brij 35.\n(§3) MMP-2, MMP-3 and MMP-9 inhibition was assayed by incubating activated catalytic domain of human MMP-2, MMP-3 and MMP-9 at 1 nM in assay buffer with 5 μM substrate Mca-Arg-Pro-Lys-Pro-Tyr-Ala-Nva-Trp-Met-Lys(Dnp)-NH2, and six different concentrations of inhibitor. The incubation was performed at 37° C. for 60 minutes.\n(§4) For MMP-2, the final assay concentrations of inhibitors used were 1000, 800, 600, 400, 200 and 100 nM. For MMP-3, the final assay concentrations of inhibitors used were 5, 4, 3, 2, 1 and 0.5 nM. For MMP-9 and MMP-14, the final assay concentrations of inhibitors used were 5, 4, 3, 2, 1 and 0.5 μM.\nAll assays were carried out in a black 96-well plate with a final volume of 100 μl in each well. Inhibitors were dissolved in dimethylsulphoxide (DMSO) to 1 mM. Solutions were then serially diluted in buffer to give the final concentrations shown. […]"}, "MMP-3": {"biological_target": "T1, MMP-3 (Homo sapiens, UniProt P08254)", "T1 construct": "made in house", "T1 sequence (P08254 100-272 limits assumed)": "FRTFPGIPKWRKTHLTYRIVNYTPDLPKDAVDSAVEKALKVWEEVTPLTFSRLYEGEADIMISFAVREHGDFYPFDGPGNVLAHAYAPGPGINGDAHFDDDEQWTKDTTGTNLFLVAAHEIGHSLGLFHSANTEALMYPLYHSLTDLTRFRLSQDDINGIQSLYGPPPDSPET", "test": "Reduction of MMP-3-catalysed degradation of KGF-2", "details": "MMP-3 / KGF-2, read-out: Percentage inhibition of proteolysis"}, "MMP-13 [2]": {"biological_target": "T2, MMP-13 (Homo sapiens, UniProt P45452)", "T2 construct": "made in house", "test": "Reduction of MMP-13-catalysed degradation of KGF-2", "details": "MMP-13 / KGF-2, read-out: Percentage inhibition of proteolysis"}, "MMP-13 [3]": {"biological_target": "T2, MMP-13", "test": "MMP-13 fluorogenic inhibition assay", "details": "estimated from IC50; read-out: Calculated Ki(nM) MMP-13", "experimental": "as §1, §2\nAssays were carried out in 96-well microfluor plates. All incubations were performed at 37° C. and fluorescence readings determined at 360 nm γex and 450 nm γem.\nFor the assay, the fluorescence values at time zero were subtracted from those determined at 15 or 20 minutes. The % response was then calculated by comparison to positive controls (enzyme, buffer and substrate in the absence of inhibitor). IC50 values were then determined using FitCurve (Excel Tessella Stats add-in).\n(§5) These were estimated using the following equation: IC50=(Ki*[…], where S is the substrate concentration and Km the Michaelis-Menton coefficient. Serine Protease Assays"}, "[4]": {"biological_target": "T3, catalytic domain human MMP-1 (Homo sapiens, UniProt P03956)", "T3 construct": "made in house", "T3 sequence (P03956 100-269 limits assumed)": "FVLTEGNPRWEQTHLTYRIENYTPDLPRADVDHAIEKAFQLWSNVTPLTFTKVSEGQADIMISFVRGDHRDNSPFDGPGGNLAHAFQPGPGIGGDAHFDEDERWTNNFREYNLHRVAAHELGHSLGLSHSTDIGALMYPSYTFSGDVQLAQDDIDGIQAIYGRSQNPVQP", "test": "MMP-1 fluorogenic inhibition assay", "details": "* limited by compound solubility; read-out: Calculated Ki(nM) MMP-1", "experimental": "as §1, §2\nThe incubation was performed at 37° C. for 60 minutes.\nas §4\n(§6) All assays were carried out in a black 96-well plate with a final volume of 100 μl in each well. Inhibitors were dissolved in dimethylsulphoxide (DMSO) to 1 mM. Solutions were then serially diluted in buffer to give the final concentrations shown.\nas §5"}, "[5]": {"biological_target": "T4, catalytic domain of human MMP-3 (Homo sapiens, UniProt P08254)", "T4 construct": "made in house", "T4 sequence (P08254 100-272 limits assumed)": "as the sequence (P08254 100-272 limits assumed) above", "test": "MMP-3 fluorogenic inhibition assay", "experimental": "as §1, §2, §3, §4, §6, §5"}}}
{"smiles": "COC[C@@H](NC(=O)[C@@H](NC(=O)[C@H](CCCc1ccc(-c2cccc(OC)c2)c(C)c1)CC(=O)O)C(C)(C)C)c1ccccc1", "note": "[compound 9454, (3R)-3-({[(1S)-2,2-Dimethyl-1-({[(1S)-2-methoxy-1-phenylethyl]amino}carbonyl)propyl]amino}carbonyl)-6-(3′-methoxy-2-methylbiphen-4-yl)hexanoic acid]", "values": [{"measurement": "Ki", "setting": "[1]", "value": 35200, "unit": "nM"}, {"measurement": "inhibition at 0.1 µM", "setting": "MMP-3; inhibitor 0.1 μM", "value": 45, "unit": "%"}, {"measurement": "inhibition at 1 µM", "setting": "MMP-3; inhibitor 1 μM", "value": 30, "unit": "%"}, {"measurement": "inhibition at 10 µM", "setting": "MMP-3; inhibitor 10 μM", "value": 62, "unit": "%"}, {"measurement": "inhibition at 100 µM", "setting": "MMP-3; inhibitor 100 μM", "value": 68, "unit": "%"}, {"measurement": "inhibition at 0.1 µM", "setting": "MMP-13 [2]; inhibitor 0.1 μM", "value": 1.6, "unit": "%"}, {"measurement": "inhibition at 1 µM", "setting": "MMP-13 [2]; inhibitor 1 μM", "value": 10, "unit": "%"}, {"measurement": "inhibition at 10 µM", "setting": "MMP-13 [2]; inhibitor 10 μM", "value": 23.7, "unit": "%"}, {"measurement": "inhibition at 100 µM", "setting": "MMP-13 [2]; inhibitor 100 μM", "value": 82.9, "unit": "%"}, {"measurement": "Ki", "setting": "MMP-13 [3]", "value": 857, "unit": "nM"}, {"measurement": "Ki", "setting": "[4]", "value": "> 19400", "unit": "nM"}, {"measurement": "Selectivity among MMPs (in words)", "setting": "[5]; from Ki values of Table 3 (MMP-1, -2, -3, -9, -13, -14)", "value": "selective MMP-3 inhibitor"}, {"measurement": "Ki", "setting": "[5]; read-out: Calculated Ki(nM) MMP-3", "value": 44, "unit": "nM"}]}
